In ChEMBL document CHEMBL1142050, “A two-state homology model of the hERG K+ channel: application to ligand binding” (Bioorg Med Chem Lett, 2005):

What was measured:
[1] = target: T1, Voltage-gated inwardly rectifying potassium channel KCNH2 (Homo sapiens, UniProt Q12809); assay: Inhibition of human voltage-gated potassium channel subunit Kv11.1 (ERG K+ channel) in open state; format: functional
[2] = target: T1, Voltage-gated inwardly rectifying potassium channel KCNH2; assay: Inhibition of partially open human voltage-gated potassium channel subunit Kv11.1 (ERG K+ channel)

T1 sequence (Q12809 whole entry): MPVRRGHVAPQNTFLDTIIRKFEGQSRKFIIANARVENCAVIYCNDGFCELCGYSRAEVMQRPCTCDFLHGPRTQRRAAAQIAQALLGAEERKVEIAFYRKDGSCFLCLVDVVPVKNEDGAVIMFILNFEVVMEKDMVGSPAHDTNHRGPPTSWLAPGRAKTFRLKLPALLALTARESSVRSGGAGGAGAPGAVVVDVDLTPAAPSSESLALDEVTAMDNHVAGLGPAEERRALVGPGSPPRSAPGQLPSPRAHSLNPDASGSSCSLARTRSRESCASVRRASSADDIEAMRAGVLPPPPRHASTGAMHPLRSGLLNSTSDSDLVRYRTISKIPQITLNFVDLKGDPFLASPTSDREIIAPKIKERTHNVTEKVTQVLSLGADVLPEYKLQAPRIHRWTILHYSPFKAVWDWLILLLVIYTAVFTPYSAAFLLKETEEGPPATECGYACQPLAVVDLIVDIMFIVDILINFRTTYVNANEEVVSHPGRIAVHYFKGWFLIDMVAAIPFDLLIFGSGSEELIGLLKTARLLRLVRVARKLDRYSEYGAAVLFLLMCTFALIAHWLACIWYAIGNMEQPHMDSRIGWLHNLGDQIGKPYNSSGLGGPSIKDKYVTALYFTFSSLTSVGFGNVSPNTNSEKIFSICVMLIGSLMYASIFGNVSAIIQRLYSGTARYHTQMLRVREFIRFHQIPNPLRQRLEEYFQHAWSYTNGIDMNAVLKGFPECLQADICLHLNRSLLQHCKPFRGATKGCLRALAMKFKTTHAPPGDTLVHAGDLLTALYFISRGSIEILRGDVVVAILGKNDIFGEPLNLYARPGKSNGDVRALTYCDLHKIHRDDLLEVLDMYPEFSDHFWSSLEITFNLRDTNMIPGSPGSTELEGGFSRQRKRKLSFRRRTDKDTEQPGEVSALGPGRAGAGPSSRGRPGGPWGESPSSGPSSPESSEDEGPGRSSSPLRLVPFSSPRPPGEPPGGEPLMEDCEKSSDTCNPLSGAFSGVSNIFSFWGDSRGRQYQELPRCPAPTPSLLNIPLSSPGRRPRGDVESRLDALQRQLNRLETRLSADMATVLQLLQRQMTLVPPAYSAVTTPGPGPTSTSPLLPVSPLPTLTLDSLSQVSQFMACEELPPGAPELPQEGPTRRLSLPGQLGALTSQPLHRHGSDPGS

Row | SMILES | IC50 [1] [nM] | IC50 [2] [nM]
1 | CN1CCN(CCCCN2C(=O)CN(/N=C/c3ccc(-c4ccc(Cl)cc4)o3)C2=O)CC1 | 562 | 
2 | CN(c1nccc(=O)[nH]1)C1CCN(c2nc3ccccc3n2Cc2ccc(F)cc2)CC1 [MIZOLASTINE] |  | 355
3 | C[C@@H]1CN(c2c(F)c(N)c3c(=O)c(C(=O)O)cn(C4CC4)c3c2F)C[C@H](C)N1 [SPARFLOXACIN] | 26300 | 
